Assay results: patent publication US9090647B2, “Crystalline forms of rebaudioside B” (CARGILL, INCORPORATED, priority 2010, dated 2015)
Converted amounts (≈) assume the structure as drawn. Like-named read-outs stand apart in the source and are kept apart here.

Test: Solubility of rebaudioside B crystal polymorphs by incremental addition to solvent in a temperature controlled stirred vessel, visual determination
Assay type: physicochemical
Settings: for solubility: 25 °C, thermodynamic from solid; for solubility / solubility in ethanol / solubility in water: 25° C.
Experimental: The solubility of each of the four crystal polymorphs of rebaudioside B was determined in the following manner. Experiments were conducted using a known volume of solvent in a temperature controlled stirred vessel. The amount of solvent used was either 1 mL or 2 mL. Rebaudioside B was added to the solvent in the temperature controlled stirred vessel in 0.5 mg increments and held to visually determine if it dissolved. If the first 0.5 mg increment dissolved, another 0.5 mg increment was added and again held to visually determine if it dissolved. […] Each incremental addition of rebaudioside B was allowed a maximum of 1 hour to dissolve (if dissolution took place more quickly it was not necessary to wait the full 1 hour).

solubility (95% ethanol/5% water solution, organic solvent or mixture, 95% ethanol/5% water solution, read-out: solubility in a 95% ethanol/5% water solution) [mg/mL] | solubility in ethanol (in words) | solubility in ethanol | solubility in an ethanol/water mixture (in words) (ethanol/water mixture) | solubility in water (in words) (water) | solubility (water, water, water, read-out: solubility in water) [mg/mL] | solubility in water (water) | Structure (SMILES)
~28 (≈ 34.8 mM) | moderate | about 8.3 mg/mL | high | low | < 0.5 |  | C=C1C[C@@]23CC[C@H]4[C@@](C)(CCC[C@@]4(C)C(=O)O)[C@@H]2CC[C@]1(O[C@@H]1O[C@H](CO)[C@@H](O)[C@H](O[C@@H]2O[C@H](CO)[C@@H](O)[C@H](O)[C@H]2O)[C@H]1O[C@@H]1O[C@H](CO)[C@@H](O)[C@H](O)[C@H]1O)C3 [Form 1, rebaudioside B]
 | low | about 2.7 mg/mL |  | low |  | less than 0.5 mg/mL | C=C1C[C@@]23CC[C@H]4[C@@](C)(CCC[C@@]4(C)C(=O)O)[C@@H]2CC[C@]1(O[C@@H]1O[C@H](CO)[C@@H](O)[C@H](O[C@@H]2O[C@H](CO)[C@@H](O)[C@H](O)[C@H]2O)[C@H]1O[C@@H]1O[C@H](CO)[C@@H](O)[C@H](O)[C@H]1O)C3 [Form 2, rebaudioside B]
 | moderate | about 10 mg/mL |  | low |  | less than 0.5 mg/mL | C=C1C[C@@]23CC[C@H]4[C@@](C)(CCC[C@@]4(C)C(=O)O)[C@@H]2CC[C@]1(O[C@@H]1O[C@H](CO)[C@@H](O)[C@H](O[C@@H]2O[C@H](CO)[C@@H](O)[C@H](O)[C@H]2O)[C@H]1O[C@@H]1O[C@H](CO)[C@@H](O)[C@H](O)[C@H]1O)C3 [Form 3, rebaudioside B]
